Tests used:
[1] = Cytotoxicity against human MCF-10A cells assessed as cell viability incubated for 96 hrs by MTT assay; format: toxicity, cell-based; parameters: concentration or dose not given beside the values; conditions: read-out: Activity
MIA PaCa-2 = test: Antiproliferative activity against human MIA PaCa-2 cells assessed as inhibition of cell growth incubated for 48 hrs by propidium iodide staining based fluorometer assay; format: functional; conditions: MIA PaCa-2, 48 h
MCF7 = test: Antiproliferative activity against human MCF7 cells assessed as inhibition of cell growth incubated for 48 hrs by propidium iodide staining based fluorometer assay; format: functional; conditions: MCF7, 48 h
A549 = test: Antiproliferative activity against human A549 cells assessed as inhibition of cell growth incubated for 48 hrs by propidium iodide staining based fluorometer assay; format: functional; conditions: A549, 48 h
PANC-1 = test: cells; conditions: Homo sapiens, PANC-1, 48 h
Description: Antiproliferative activity against human PANC-1 cells assessed as inhibition of cell growth incubated for 48 hrs by propidium iodide staining based fluorometer assay

HT-29 = test: cells; conditions: Homo sapiens, HT-29, 48 h
Description: Antiproliferative activity against human HT-29 cells assessed as inhibition of cell growth incubated for 48 hrs by propidium iodide staining based fluorometer assay

NCI-H460 = test: cells; conditions: Homo sapiens, NCI-H460, 48 h
Description: Antiproliferative activity against human NCI-H460 cells assessed as inhibition of cell growth incubated for 48 hrs by propidium iodide staining based fluorometer assay

PC-3 = test: cells; conditions: Homo sapiens, PC-3, 48 h
Description: Antiproliferative activity against human PC-3 cells assessed as inhibition of cell growth incubated for 48 hrs by propidium iodide staining based fluorometer assay

SMILES	viability at 96 h [1]	IC50 (MIA PaCa-2)	IC50 (MCF7)	IC50 (A549)	IC50 (PANC-1)	IC50 (HT-29)	IC50 (NCI-H460)	IC50 (PC-3)
COc1cccc2c1CC/C(=C\c1ccc(OC)c(OC)c1Cl)C2=O	95%	6.7 µM	6.4 µM	6.7 µM	6.9 µM	6.7 µM	6.4 µM	7.2 µM
COc1cccc(/C=C2\CCc3ccccc3C2=O)c1Cl	92%	27.9 µM	26.7 µM	25.1 µM	27.5 µM	28.2 µM	25.1 µM	28.5 µM
COc1cc(/C=C2\CN(Cc3ccccc3)C/C(=C\c3cc(OC)c(OC)c(OC)c3Br)C2=O)c(Br)c(OC)c1OC	91%	11.9 µM	12.8 µM	11.1 µM	12.2 µM	12 µM	12.3 µM	14.6 µM
COc1cc(/C=C2\CC(C(C)C)C/C(=C\c3cc(OC)c(OC)c(OC)c3Br)C2=O)c(Br)c(OC)c1OC (stereo not given)	89%	7.5 µM	8.1 µM	7.6 µM	7.2 µM	6.7 µM	7.4 µM	7.2 µM
COc1cccc(/C=C2\CC(C(C)C)C/C(=C\c3cccc(OC)c3Cl)C2=O)c1Cl (stereo not given)	93%	16.7 µM	15.2 µM	13.4 µM	14.5 µM	12.1 µM	13.9 µM	14.1 µM
COc1cccc2c1CC/C(=C\c1cc(OC)c(OC)c(OC)c1Br)C2=O	94%	4.6 µM	5.7 µM	4.5 µM	4.2 µM	3.9 µM	4.7 µM	3.9 µM
COc1cccc(/C=C2\CC(C)C/C(=C\c3cccc(OC)c3Cl)C2=O)c1Cl (stereo not given)	93%	2.9 µM	2.8 µM	3.1 µM	3.3 µM	3.4 µM	4.2 µM	3.9 µM
COc1cc(/C=C2\CC(C)c3ccccc3C2=O)c(Br)c(OC)c1OC (stereo not given)	92%	2.3 µM	2.1 µM	2.6 µM	2.4 µM	2.9 µM	2.2 µM	2.4 µM
COc1ccc2c(c1)CC/C(=C\c1cc(OC)c(OC)c(OC)c1Br)C2=O	90%	1.6 µM	1.9 µM	1.9 µM	1.4 µM	1.5 µM	1.9 µM	1.5 µM
COc1ccc(/C=C2\CCc3ccccc3C2=O)c(Cl)c1OC	96%	23.2 µM	20.5 µM	23.3 µM	24.5 µM	26.5 µM	22.9 µM	23.4 µM
COc1cccc(/C=C2\CCc3ccc(Br)cc3C2=O)c1Cl	94%	12.8 µM	14.1 µM	13.3 µM	13.4 µM	14 µM	12.9 µM	13.7 µM
CCN(CC)CCO/N=C1\C(=C\c2ccc(OC)c(OC)c2Cl)CCc2ccc([N+](=O)[O-])cc21	94%	6.6 µM	6.6 µM	7.1 µM	6.9 µM	7 µM	7.2 µM	6.4 µM
COc1cccc(/C=C2\CCc3ccc(F)cc3C2=O)c1Cl	90%	15.2 µM	12.9 µM	11.1 µM	12.4 µM	12.9 µM	15.2 µM	12.6 µM
COc1cccc(/C=C2\CCc3c(OC)ccc(OC)c3C2=O)c1Cl	98%	6.7 µM	7.2 µM	8.8 µM	7.4 µM	7.1 µM	7.9 µM	7.2 µM
COc1cc(/C=C2\CCc3ccc([N+](=O)[O-])cc3C2=O)c(Br)c(OC)c1OC	88%	1.5 µM	1.4 µM	1.3 µM	1.2 µM	1.4 µM	1.3 µM	1.4 µM
COc1ccc(/C=C2\CC(C(C)C)C/C(=C\c3ccc(OC)c(OC)c3Cl)C2=O)c(Cl)c1OC (stereo not given)	87%	11.8 µM	11.9 µM	12.9 µM	12.2 µM	13.2 µM	15.3 µM	12.6 µM
COc1cccc(/C=C2\CNC/C(=C\c3cccc(OC)c3Cl)C2=O)c1Cl	94%	7.7 µM	8.4 µM	7.3 µM	7.5 µM	7.4 µM	7.3 µM	7.6 µM
CCN(CC)CCO/N=C1\C(=C\c2cc(OC)c(OC)c(OC)c2Br)CCc2c(OC)ccc(OC)c21	95%	2.1 µM	2.2 µM	2.1 µM	2.7 µM	2.9 µM	2.9 µM	2.2 µM
COc1cc(/C=C2\CCc3ccccc3C2=O)c(Br)c(OC)c1OC	94%	23.7 µM	20.4 µM	22.6 µM	21.3 µM	21.2 µM	22.2 µM	22 µM
COc1ccc(/C=C2\CCc3ccc(Br)cc3C2=O)c(Cl)c1OC	92%	10.6 µM	11.1 µM	10.3 µM	10.8 µM	10.5 µM	11.1 µM	10.4 µM
COc1cc(/C=C2\CCC/C(=C\c3cc(OC)c(OC)c(OC)c3Br)C2=O)c(Br)c(OC)c1OC	89%	2.6 µM	3.1 µM	2.6 µM	2.4 µM	2 µM	2.6 µM	2.9 µM
COc1ccc(/C=C2\CC(C)c3ccccc3C2=O)c(Cl)c1OC (stereo not given)	99%	7.2 µM	7.2 µM	7.7 µM	7.5 µM	7.2 µM	7.9 µM	7.3 µM
COc1ccc(OC)c2c1CC/C(=C\c1cc(OC)c(OC)c(OC)c1Br)C2=O	91%	2.2 µM	2.4 µM	2.6 µM	2.5 µM	1.9 µM	2.1 µM	2.2 µM
COc1cc(/C=C2\CCc3c(O)cccc3C2=O)c(Br)c(OC)c1OC	93%	1.9 µM	1.8 µM	1.6 µM	1.9 µM	1.9 µM	1.9 µM	2.2 µM
COc1cccc(/C=C2\CCC/C(=C\c3cccc(OC)c3Cl)C2=O)c1Cl	90%	7.2 µM	6.5 µM	8.1 µM	6.9 µM	6.1 µM	5.4 µM	6.4 µM

From ChEMBL document CHEMBL5257024, “Synthesis of α,β-Unsaturated Carbonyl-Based Compounds, Oxime and Oxime Ether Analogs as Potential Anticancer Agents for Overcoming Cancer Multidrug Resistance by Modulation of Efflux Pumps in Tumor Cells” (J Med Chem, 2016)
